Source: patent US20100152434A1, “Protein Kinase-binding Nucleosides and Associated Methods” (priority 2007, published 2010)

Tests used:
RAF1(EE) = target: T1, RAF1(EE) (Homo sapiens, UniProt P04049, Y340E/Y341E); test: SignalChem radioisotope protein kinase assay; type: biochemical; settings: 5 μl of 100 μM stock solution in 25 μl
T1 construct: purchased SignalChem
Source text: (§1) The various protein kinase targets to be employed in the kinase profiling assay were cloned, expressed and purified in-house at SignalChem (Richmond, BC, Canada) using proprietary methods. Quality control testing is routinely performed on each of the SignalChem targets to ensure compliance to acceptable standards. Protein substrates employed in the target profiling process were synthesized internally. ^33P-ATP was purchased from PerkinElmer. All other materials were of standard grade. Compound 10 (FIG. 4) was supplied to SignalChem in a powder form. It was reconstituted in DMSO to form a stock solution which was then diluted with 10% DMSO to form a working stock solution (100 μM) that was then profiled against the various protein kinase targets. The assay conditions for the various protein kinase targets were optimized to yield acceptable enzymatic activity. In addition, the assays were optimized to give high signal-to-noise ratio.
(§2) SignalChem uses a radioisotope assay format for profiling evaluation of protein kinase targets. Protein kinase assays were performed in triplicate at ambient temperature for 20-40 min (depending on the target) in a final volume of 25 μl according to the following assay reaction recipe: • Component 1: 5 μl of diluted active protein kinase target (˜10-40 nM final protein concentration in the assay) • Component 2: 5 μl of stock solution of substrate (1-5 μg of peptide or protein substrate) • Component 3: 5 μl of kinase assay buffer or protein kinase activator in kinase assay buffer • Component 4: 5 μl of Compound 10 (100 μM stock solution) or 10% DMSO • Component 5: 5 μl of 33P-ATP (25 μM stock solution, 0.8 μCi)
(§3) The assay was initiated by the addition of ^33P-ATP and the reaction mixture incubated at ambient temperature for 20-40 minutes, depending on the protein kinase target. After the incubation period, the assay was terminated by spotting 10 μl of the reaction mixture onto a Millipore Multiscreen plate. The Millipore Multiscreen plate was washed 3 times for approximately 15 minutes each in a 1% phosphoric acid solution. The radioactivity on the P81 plate was counted in the presence of scintillation fluid in a Trilux scintillation counter. Blank control, which included all the assay components except the addition of the appropriate substrate (replaced with equal volume of assay dilution buffer), was set up for each protein kinase target. The corrected activity for each protein kinase target was determined by removing the blank control value.

RSK3 = target: T2, RSK3 (Homo sapiens, UniProt Q15349); test: SignalChem radioisotope protein kinase assay; type: biochemical; settings: 5 μl of 100 μM stock solution in 25 μl
T2 construct: purchased SignalChem
Source text: as §1, §2, §3

p38α = p38α (Homo sapiens, UniProt Q16539); test: SignalChem radioisotope protein kinase assay; type: biochemical; settings: 5 μl of 100 μM stock solution in 25 μl
Source text: as §1, §2, §3

ABL1 = ABL1 (Homo sapiens, UniProt P00519); test: SignalChem radioisotope protein kinase assay; type: biochemical; settings: 5 μl of 100 μM stock solution in 25 μl
Source text: as §1, §2, §3

AKT1 = AKT1 (Homo sapiens, UniProt P31749); test: SignalChem radioisotope protein kinase assay; type: biochemical; settings: 5 μl of 100 μM stock solution in 25 μl
Source text: as §1, §2, §3

PDK1 = PDK1 (Homo sapiens, UniProt O15530); test: SignalChem radioisotope protein kinase assay; type: biochemical; settings: 5 μl of 100 μM stock solution in 25 μl
Source text: as §1, §2, §3

KDR = KDR (Homo sapiens, UniProt P35968); test: SignalChem radioisotope protein kinase assay; type: biochemical; settings: 5 μl of 100 μM stock solution in 25 μl
Source text: as §1, §2, §3

SRC = target: T3, SRC (Homo sapiens, UniProt P12931); test: SignalChem radioisotope protein kinase assay; type: biochemical; settings: 5 μl of 100 μM stock solution in 25 μl
T3 construct: purchased SignalChem
Source text: as §1, §2, §3

FER = FER (Homo sapiens, UniProt P16591); test: SignalChem radioisotope protein kinase assay; type: biochemical; settings: 5 μl of 100 μM stock solution in 25 μl
Source text: as §1, §2, §3

FAK = FAK (Homo sapiens, UniProt Q05397); test: SignalChem radioisotope protein kinase assay; type: biochemical; settings: 5 μl of 100 μM stock solution in 25 μl
Source text: as §1, §2, §3

PIM1 = PIM1 (Homo sapiens, UniProt P11309); test: SignalChem radioisotope protein kinase assay; type: biochemical; settings: 5 μl of 100 μM stock solution in 25 μl
Source text: as §1, §2, §3

BRAF = BRAF (Homo sapiens, UniProt P15056); test: SignalChem radioisotope protein kinase assay; type: biochemical; settings: 5 μl of 100 μM stock solution in 25 μl
Source text: as §1, §2, §3

FLT3 = FLT3 (Homo sapiens, UniProt P36888); test: SignalChem radioisotope protein kinase assay; type: biochemical; settings: 5 μl of 100 μM stock solution in 25 μl
Source text: as §1, §2, §3

MEK1 = MEK1 (Homo sapiens, UniProt Q02750); test: SignalChem radioisotope protein kinase assay; type: biochemical; settings: 5 μl of 100 μM stock solution in 25 μl
Source text: as §1, §2, §3

AKT2 = AKT2 (Homo sapiens, UniProt P31751); test: SignalChem radioisotope protein kinase assay; type: biochemical; settings: 5 μl of 100 μM stock solution in 25 μl
Source text: as §1, §2, §3

AURORA B = AURORA B (Homo sapiens, UniProt Q96GD4); test: SignalChem radioisotope protein kinase assay; type: biochemical; settings: 5 μl of 100 μM stock solution in 25 μl
Source text: as §1, §2, §3

BRK = BRK (Homo sapiens, UniProt Q13882); test: SignalChem radioisotope protein kinase assay; type: biochemical; settings: 5 μl of 100 μM stock solution in 25 μl
Source text: as §1, §2, §3

PIK3CG = PIK3CG (Homo sapiens, UniProt P48736); test: Ambit kinase phage display ATP-binding-site ligand binding assay; settings: read-out: percent inhibition of binding
Source text: (§4) This assay is based on ligand-affinity/protein kinase phage display and was employed essentially as described by Fabian et. al [Nature Biotech. […] In this assay, protein kinases are cloned into T7 bacteriophage which express the kinase fusion proteins on the phage capsid. T7 kinase-tagged phage are then screened for binding to ATP-binding-site ligands that have been immobilized on a solid support. Phage are screened for binding to the anchored ligands both in the presence of test compound and in its absence (control). Elution of the bound phage by free ligand (ATP-binding site ligand that is not immobilized on a solid support) followed by determination of the phage titre provides a reliable measure of the ability of test compounds to block binding of target kinases to resin-bound ATP-binding-site ligands.
(§5) T7 kinase-tagged phage strains were grown in parallel in microtiter plates in a proprietary bacterial host derived from E. Coli strain BL21. E. Coli were grown to a log phase, infected with T7 kinase-tagged phage, and incubated while shaking at 32° C. until bacterial lysis (approx. 90 min). Lysates were centrifuged (6,000 g) and filtered (0.2 μm). […] The phage titre of the eluates was measured by quantitative PCR or by plaque assays. […]

MAP4K5 = MAP4K5 (Homo sapiens, UniProt Q9Y4K4); test: as above; settings: read-out: percent inhibition of binding
Source text: as §4, §5

CDK5 = CDK5 (Homo sapiens, UniProt Q00535); test: as above; settings: read-out: percent inhibition of binding
Source text: (§6) In this assay, protein kinases are cloned into T7 bacteriophage which express the kinase fusion proteins on the phage capsid. T7 kinase-tagged phage are then screened for binding to ATP-binding-site ligands that have been immobilized on a solid support. Phage are screened for binding to the anchored ligands both in the presence of test compound and in its absence (control). Elution of the bound phage by free ligand (ATP-binding site ligand that is not immobilized on a solid support) followed by determination of the phage titre provides a reliable measure of the ability of test compounds to block binding of target kinases to resin-bound ATP-binding-site ligands.
(§7) T7 kinase-tagged phage strains were grown in parallel in microtiter plates in a proprietary bacterial host derived from E. Coli strain BL21. E. Coli were grown to a log phase, infected with T7 kinase-tagged phage, and incubated while shaking at 32° C. until bacterial lysis (approx. 90 min). Lysates were centrifuged (6,000 g) and filtered (0.2 μm). Small molecule ATP-binding-site-specific ligands were anchored to solid supports via a two step process beginning with biotin conjugation followed by treatment of the biotin/small molecule conjugate with streptavidin-coated magnetic beads. […] The phage titre of the eluates was measured by quantitative PCR or by plaque assays. […]

CIT = CIT (Homo sapiens, UniProt O14578); test: as above; settings: read-out: percent inhibition of binding
Source text: as §6, §7

CAMKK2 = CAMKK2 (Homo sapiens, UniProt Q96RR4); test: as above; settings: read-out: percent inhibition of binding
Source text: as §6, §7

CLK3 = CLK3 (Homo sapiens, UniProt P49761); test: as above; settings: read-out: percent inhibition of binding
Source text: as §6, §7

DAPK1 = DAPK1 (Homo sapiens, UniProt P53355); test: as above; settings: read-out: percent inhibition of binding
Source text: as §6, §7

PHKG2 = PHKG2 (Homo sapiens, UniProt P15735); test: as above; settings: read-out: percent inhibition of binding
Source text: as §4, §5

CSNK2A2 = CSNK2A2 (Homo sapiens, UniProt P19784); test: as above; settings: read-out: % Inhibition of binding to ATP-binding-site ligand
Source text: as §4, §5

Chain of PDK1 (O15530 whole entry): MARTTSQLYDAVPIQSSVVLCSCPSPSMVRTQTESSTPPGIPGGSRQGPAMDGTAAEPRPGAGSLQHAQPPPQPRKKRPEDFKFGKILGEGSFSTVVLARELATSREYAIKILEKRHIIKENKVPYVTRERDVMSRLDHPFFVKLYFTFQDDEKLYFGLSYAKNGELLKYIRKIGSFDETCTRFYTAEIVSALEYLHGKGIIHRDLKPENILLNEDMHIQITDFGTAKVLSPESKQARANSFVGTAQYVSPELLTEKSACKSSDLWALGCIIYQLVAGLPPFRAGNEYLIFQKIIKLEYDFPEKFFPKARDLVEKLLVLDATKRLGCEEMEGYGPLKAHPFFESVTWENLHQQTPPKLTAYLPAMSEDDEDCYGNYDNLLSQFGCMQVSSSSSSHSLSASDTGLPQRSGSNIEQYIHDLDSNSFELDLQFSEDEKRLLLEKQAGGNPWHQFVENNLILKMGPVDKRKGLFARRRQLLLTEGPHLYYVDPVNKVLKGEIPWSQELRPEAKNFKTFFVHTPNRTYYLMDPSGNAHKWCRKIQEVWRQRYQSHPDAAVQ
Chain of DAPK1 (P53355 whole entry): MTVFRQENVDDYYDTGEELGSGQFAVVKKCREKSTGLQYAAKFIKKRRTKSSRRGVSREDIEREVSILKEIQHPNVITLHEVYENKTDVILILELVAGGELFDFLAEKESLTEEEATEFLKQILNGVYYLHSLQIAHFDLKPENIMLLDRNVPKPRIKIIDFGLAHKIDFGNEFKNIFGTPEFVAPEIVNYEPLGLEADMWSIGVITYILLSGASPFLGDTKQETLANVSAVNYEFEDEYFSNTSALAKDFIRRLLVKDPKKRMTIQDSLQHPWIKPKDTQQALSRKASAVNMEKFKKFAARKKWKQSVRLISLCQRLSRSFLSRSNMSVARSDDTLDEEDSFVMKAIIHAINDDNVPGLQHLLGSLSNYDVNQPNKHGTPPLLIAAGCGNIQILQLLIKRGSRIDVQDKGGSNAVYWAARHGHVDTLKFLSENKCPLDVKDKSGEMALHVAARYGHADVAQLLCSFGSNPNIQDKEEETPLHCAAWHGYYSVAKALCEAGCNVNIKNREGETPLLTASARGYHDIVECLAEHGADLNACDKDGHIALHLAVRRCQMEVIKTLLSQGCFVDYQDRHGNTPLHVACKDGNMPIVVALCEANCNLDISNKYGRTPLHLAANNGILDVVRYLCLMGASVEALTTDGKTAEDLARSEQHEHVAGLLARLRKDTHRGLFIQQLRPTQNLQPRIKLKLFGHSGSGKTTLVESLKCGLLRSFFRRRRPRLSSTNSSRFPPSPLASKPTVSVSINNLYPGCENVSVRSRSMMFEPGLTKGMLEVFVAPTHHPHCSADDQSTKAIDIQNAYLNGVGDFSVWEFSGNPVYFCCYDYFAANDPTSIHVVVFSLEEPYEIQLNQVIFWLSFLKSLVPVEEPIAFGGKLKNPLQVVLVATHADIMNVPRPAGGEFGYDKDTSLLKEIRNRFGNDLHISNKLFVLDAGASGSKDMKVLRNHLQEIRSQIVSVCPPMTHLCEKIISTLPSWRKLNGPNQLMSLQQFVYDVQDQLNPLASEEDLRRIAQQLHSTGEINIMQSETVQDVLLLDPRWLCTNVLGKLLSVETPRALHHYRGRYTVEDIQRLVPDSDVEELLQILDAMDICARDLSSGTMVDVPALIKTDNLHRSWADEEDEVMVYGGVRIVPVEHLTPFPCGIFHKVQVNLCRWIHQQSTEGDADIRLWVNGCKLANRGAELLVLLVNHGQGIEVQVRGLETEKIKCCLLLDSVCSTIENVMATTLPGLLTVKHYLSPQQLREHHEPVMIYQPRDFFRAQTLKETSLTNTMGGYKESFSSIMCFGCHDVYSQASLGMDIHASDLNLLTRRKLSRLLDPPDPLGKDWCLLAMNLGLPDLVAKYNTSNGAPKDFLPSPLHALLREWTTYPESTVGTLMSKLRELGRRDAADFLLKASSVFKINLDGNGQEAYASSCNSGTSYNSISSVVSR
Chain of CAMKK2 (Q96RR4 whole entry): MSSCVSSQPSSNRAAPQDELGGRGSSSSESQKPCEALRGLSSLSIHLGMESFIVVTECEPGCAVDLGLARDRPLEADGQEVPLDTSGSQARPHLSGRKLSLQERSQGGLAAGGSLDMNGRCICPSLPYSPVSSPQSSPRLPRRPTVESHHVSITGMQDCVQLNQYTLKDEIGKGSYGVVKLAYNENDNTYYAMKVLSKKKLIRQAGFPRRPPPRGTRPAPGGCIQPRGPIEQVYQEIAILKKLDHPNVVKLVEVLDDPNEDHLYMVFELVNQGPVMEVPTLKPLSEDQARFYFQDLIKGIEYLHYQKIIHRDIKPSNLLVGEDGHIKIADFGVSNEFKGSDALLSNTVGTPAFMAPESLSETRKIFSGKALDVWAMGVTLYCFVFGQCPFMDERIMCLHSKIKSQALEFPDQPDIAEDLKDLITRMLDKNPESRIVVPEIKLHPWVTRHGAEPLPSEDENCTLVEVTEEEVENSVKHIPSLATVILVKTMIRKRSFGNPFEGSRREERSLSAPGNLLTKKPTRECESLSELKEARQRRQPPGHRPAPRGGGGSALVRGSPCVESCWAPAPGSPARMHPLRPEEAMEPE
T2 sequence (Q15349 whole entry, species assumed): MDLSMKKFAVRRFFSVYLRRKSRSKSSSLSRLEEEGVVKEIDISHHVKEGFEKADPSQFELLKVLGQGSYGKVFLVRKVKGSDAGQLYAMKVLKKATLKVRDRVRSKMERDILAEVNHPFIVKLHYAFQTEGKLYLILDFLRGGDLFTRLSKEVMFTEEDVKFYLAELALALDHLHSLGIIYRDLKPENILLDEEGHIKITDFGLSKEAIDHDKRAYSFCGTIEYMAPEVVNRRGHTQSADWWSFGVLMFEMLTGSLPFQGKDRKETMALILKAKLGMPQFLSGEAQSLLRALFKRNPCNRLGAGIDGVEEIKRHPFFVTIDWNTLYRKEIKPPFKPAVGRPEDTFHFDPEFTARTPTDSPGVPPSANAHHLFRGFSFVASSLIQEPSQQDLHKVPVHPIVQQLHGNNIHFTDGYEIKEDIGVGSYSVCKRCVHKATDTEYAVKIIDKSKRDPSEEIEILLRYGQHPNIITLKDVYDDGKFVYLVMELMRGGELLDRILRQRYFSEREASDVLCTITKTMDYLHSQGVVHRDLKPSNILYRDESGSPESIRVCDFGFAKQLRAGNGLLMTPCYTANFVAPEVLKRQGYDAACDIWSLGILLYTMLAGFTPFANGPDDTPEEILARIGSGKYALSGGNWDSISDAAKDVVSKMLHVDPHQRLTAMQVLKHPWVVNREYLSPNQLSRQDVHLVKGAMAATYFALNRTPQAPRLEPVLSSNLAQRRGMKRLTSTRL
T3 sequence (P12931 whole entry, species assumed): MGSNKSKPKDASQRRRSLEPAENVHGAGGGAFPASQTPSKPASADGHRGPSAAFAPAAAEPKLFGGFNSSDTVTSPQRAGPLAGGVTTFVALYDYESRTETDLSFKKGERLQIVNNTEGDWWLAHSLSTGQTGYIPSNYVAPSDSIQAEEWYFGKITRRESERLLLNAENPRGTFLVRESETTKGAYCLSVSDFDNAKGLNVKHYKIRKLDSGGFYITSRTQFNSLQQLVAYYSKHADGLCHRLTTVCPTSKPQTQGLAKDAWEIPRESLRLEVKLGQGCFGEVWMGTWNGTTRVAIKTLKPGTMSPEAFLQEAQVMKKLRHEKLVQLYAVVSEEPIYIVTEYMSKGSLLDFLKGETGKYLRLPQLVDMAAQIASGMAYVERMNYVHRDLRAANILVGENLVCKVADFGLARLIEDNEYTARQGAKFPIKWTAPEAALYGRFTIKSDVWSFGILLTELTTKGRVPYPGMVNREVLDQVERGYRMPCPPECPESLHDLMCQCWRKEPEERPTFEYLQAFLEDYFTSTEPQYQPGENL
Chain of AKT2 (P31751 whole entry, species assumed): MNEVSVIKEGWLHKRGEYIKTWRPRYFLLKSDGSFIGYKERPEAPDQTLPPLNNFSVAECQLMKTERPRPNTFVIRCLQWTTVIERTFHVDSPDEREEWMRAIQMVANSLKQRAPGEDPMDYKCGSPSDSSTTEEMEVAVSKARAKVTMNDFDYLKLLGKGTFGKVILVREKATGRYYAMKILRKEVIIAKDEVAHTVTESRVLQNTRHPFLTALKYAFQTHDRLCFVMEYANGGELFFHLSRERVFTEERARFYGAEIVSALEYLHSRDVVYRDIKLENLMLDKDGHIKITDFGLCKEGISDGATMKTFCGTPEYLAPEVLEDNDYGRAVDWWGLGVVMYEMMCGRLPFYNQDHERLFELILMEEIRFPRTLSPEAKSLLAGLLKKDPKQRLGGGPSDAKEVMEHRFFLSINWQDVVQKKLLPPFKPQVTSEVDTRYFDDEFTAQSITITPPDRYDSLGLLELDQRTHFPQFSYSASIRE
Chain of p38α (Q16539 whole entry): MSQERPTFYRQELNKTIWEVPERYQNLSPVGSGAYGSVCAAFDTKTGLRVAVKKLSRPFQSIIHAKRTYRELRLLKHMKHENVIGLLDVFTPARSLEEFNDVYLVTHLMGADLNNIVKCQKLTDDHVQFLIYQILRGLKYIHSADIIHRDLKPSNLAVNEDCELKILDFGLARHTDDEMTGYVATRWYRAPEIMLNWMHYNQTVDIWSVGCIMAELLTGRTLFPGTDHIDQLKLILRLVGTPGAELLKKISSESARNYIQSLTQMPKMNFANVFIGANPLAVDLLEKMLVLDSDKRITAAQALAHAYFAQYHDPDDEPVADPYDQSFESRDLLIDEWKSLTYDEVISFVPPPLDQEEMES
Chain of AURORA B (Q96GD4 whole entry): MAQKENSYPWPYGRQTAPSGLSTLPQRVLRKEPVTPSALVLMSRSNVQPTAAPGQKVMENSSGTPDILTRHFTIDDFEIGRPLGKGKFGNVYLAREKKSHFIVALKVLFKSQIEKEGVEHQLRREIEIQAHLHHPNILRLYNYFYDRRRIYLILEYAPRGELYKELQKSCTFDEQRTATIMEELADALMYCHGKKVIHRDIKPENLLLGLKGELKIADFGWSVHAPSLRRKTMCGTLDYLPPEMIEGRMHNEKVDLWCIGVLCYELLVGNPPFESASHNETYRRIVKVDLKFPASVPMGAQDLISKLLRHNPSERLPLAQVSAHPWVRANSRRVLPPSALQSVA

**Q.** Which “% Activity Change” value (RAF1(EE)) does the source give for `CCOC(=O)C[C@@H]1C(O[Si](C)(C)C(C)(C)C)[C@H](n2cnc3c(NC(=O)Nc4ccccc4)ncnc32)O[C@@H]1CNC(=O)NC` (some centres unmarked) [Compound 10] here?
**A.** 0%

**Q.** What about the “% Activity Change” value (RSK3) of the same compound?
**A.** 10%

**Q.** And the “% Activity Change” value (p38α)?
**A.** 9%

**Q.** What about the “% Activity Change” value (ABL1) of the same compound?
**A.** 0%

**Q.** And the “% Activity Change” value (AKT1)?
**A.** 2%

**Q.** And the “% Activity Change” value (PDK1)?
**A.** 8%

**Q.** And the “% Activity Change” value (KDR)?
**A.** 2%

**Q.** What about the “% Activity Change” value (SRC) of the same compound?
**A.** −2%

**Q.** And the “% Activity Change” value (FER)?
**A.** −3%

**Q.** And the “% Activity Change” value (FAK)?
**A.** −3%

**Q.** What about the “% Activity Change” value (PIM1) of the same compound?
**A.** 51%

**Q.** What about the “% Activity Change” value (BRAF) of the same compound?
**A.** 1%

**Q.** What about the “% Activity Change” value (FLT3) of the same compound?
**A.** 11%

**Q.** What about the “% Activity Change” value (MEK1) of the same compound?
**A.** 8%

**Q.** And the “% Activity Change” value (AKT2)?
**A.** 27%

**Q.** And the “% Activity Change” value (AURORA B)?
**A.** 4%

**Q.** And the “% Activity Change” value (BRK)?
**A.** 2%

**Q.** And the inhibition at 10 µM (PIK3CG)?
**A.** 20 to 29%

**Q.** And the inhibition at 10 µM (MAP4K5)?
**A.** 20 to 29%

**Q.** What about the inhibition at 10 µM (CDK5) of the same compound?
**A.** 20 to 29%

**Q.** And the inhibition at 10 µM (CIT)?
**A.** 20 to 29%

**Q.** And the inhibition at 10 µM (CAMKK2)?
**A.** 20 to 29%

**Q.** What about the inhibition at 10 µM (CLK3) of the same compound?
**A.** 20 to 29%

**Q.** What about the inhibition at 10 µM (DAPK1) of the same compound?
**A.** 20 to 29%

**Q.** And the inhibition at 10 µM (PHKG2)?
**A.** 20 to 29%

**Q.** What about the inhibition at 10 µM (CSNK2A2) of the same compound?
**A.** 31%
